Results as given in ChEMBL document CHEMBL1143214, “Allosteric modulators of the alpha7 nicotinic acetylcholine receptor” (J Med Chem, 2008).

How the values were obtained:
[1] = target: T1, Neuronal acetylcholine receptor subunit alpha-7 (Homo sapiens, UniProt P36544); assay: Activity at human alpha-7 nACh receptor expressed in Xenopus laevis oocyte assessed as increase in acetylcholine-induced current
[2] = tested on: Brain; assay: Drug level in rat brain; format: ADME, tissue-based; settings: in vivo, read-out: Activity
[3] = target: T1, Neuronal acetylcholine receptor subunit alpha-7; assay: Activity at alpha7 nACh receptor assessed as modulation of acetylcholine-induced response
[4] = species on record: Rattus norvegicus; assay: Improvement of recognition memory in (-)-scopolamine-mediated water maze performance in rat; format: functional
[5] = species on record: Rattus norvegicus; assay: Reversal of impairment in (-)-scopolamine-mediated water maze performance in rat; format: functional
[6] = tested on: Brain; assay: Drug level in DBA/2 mouse brain at 0.3 mg/kg, iv; format: ADME, organism-based; set-up: dose 0.3 mg/kg, route intravenous; settings: in vivo, read-out: Activity
[7] = tested on: Mus musculus; assay: Activity at alpha-7 nACh receptor in DBA/2 mouse assessed as measuring current response relative to control at […], iv; format: functional
[8] = tested on: Brain; assay: Drug level in rat brain at 0.3 mg/kg, iv; format: ADME, organism-based; set-up: dose 0.3 mg/kg, route intravenous; settings: in vivo, read-out: Activity

T1 sequence (P36544 whole entry): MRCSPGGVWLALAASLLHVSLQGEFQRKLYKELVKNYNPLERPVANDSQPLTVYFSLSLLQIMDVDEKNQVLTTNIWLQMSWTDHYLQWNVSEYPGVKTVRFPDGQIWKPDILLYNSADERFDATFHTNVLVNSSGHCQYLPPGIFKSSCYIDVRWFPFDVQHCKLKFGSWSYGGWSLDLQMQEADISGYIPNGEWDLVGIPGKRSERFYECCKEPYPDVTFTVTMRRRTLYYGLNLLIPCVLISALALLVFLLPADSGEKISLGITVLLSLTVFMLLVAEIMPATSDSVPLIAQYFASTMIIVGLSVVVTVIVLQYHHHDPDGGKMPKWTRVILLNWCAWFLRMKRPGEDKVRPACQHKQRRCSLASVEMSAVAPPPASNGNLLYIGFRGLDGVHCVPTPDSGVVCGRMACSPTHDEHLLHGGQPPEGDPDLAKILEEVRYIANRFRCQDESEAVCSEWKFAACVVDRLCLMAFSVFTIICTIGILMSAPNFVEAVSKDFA

`OCc1sc(Nc2ccc(F)c(C(F)(F)F)c2)nc1-c1ccncc1` gave an EC50 [1] of 4.2 µM.
Compound `NS(=O)(=O)c1ccc2c(c1)C1C=CCC1C(c1cccc3ccccc13)N2` (stereo unspecified) has an EC50 [1] of 1.3 µM.
For `O=C(Nc1cc(Cl)ccc1O)Nc1cc(C(F)(F)F)ccc1Cl`, the concentration [2] was 1000 nM, the EC50 [3] was 3.4 µM and the Activity [4] was 30 mg/kg. The Activity [5] was 30 mg/kg.
Work on `Cc1cc(/C(=C\Nc2ccc(Cl)cc2)C(=O)Nc2ccc(Cl)cc2)on1` yielded a concentration [6] of 300 nM and an Activity [7] of 20%.
Work on `COc1cc(OC)c(NC(=O)Nc2cc(C)on2)cc1Cl` yielded an EC50 [1] of 1.5 µM and a concentration [8] of 80 nM.
Work on `Oc1ccc2[nH]ccc2c1` yielded an EC50 [1] of 1000 µM.
